# Values quoted from earlier work in patent US12364989B2, “High throughput method and system for analyzing the effects of agents on planaria” (priority 2019, dated 2025).
# Assays:
# planarians = settings: regenerating compared with intact animals
# planaria [1] = tested on: planaria
# planaria [2] = settings: Hagstrom et al., Toxicological Sciences 2015
smiles,measurement,setting,value
"C[S+](C)[O-] [DMSO, Dimethyl sulfoxide]",sensitivity of regenerating planarians,planarians,increased sensitivity
"CN(C)C=O [N,N-dimethylformamide]",effect on auricle regeneration,"planaria [1]; morphological endpoint, Zhang et al., Toxicological and Industrial Health 2013",effect
CCO [ethanol],sensitivity of regenerating planarians,planarians,increased sensitivity
CC1(C)C(C=C(Cl)Cl)C1C(=O)OCc1cccc(Oc2ccccc2)c1 (centres unmarked) [permethrin],eye reappearance,"planaria [1]; Hagstrom et al., Toxicological Sciences 2015",did delay
same,blastema growth rate,planaria [2],did not affect
